Assay results reported in PMC5927461, “Activation of host transient receptor potential (TRP) channels by praziquantel stereoisomers” (PLoS Neglected Tropical Diseases, 2018).

Legend:
[1] = molecular target: TRPV1 (Homo sapiens, UniProt Q8NER1); assay: Single cell confocal Ca2+ imaging (fluo-4) in transfected HEK293 cells; format: cell-based; design: host or cells: HEK293 (ATCC CRL-1573.3), transient; settings: capsaicin 1μM, ±PZQ 100μM
From the text: Human TRPM8 cDNA was a VersaClone from R&D Systems (RDC0188). Plasmids encoding human TRPA1 and human TRPV1 cDNA were purchased from DNASU plasmid repository (HsCD00080227 and HsCD00081472, respectively). The TRP channel coding sequences were subcloned into pCS2+ to introduce a COOH-term myc tag using the InFusion HD method (Clontech), HindIII/XhoI restriction enzymes (NEB) and the following primers: TRPM8 F–TGGGGACGTCGGAGC-aagctt-[…]; TRPM8 R–AAATCGATGGGATGC-ctcgag-[…]; TRPA1 F-GGACGTCGGAGC-aagctt- atgaagcgcagcctgagg; TRPA1 R-TCGATGGGATGC-ctcgag-[…]; TRPV1 F–GGACGTCGGAGC-aagctt-[…]; TRPV1 R-TCGATGGGATGC-ctcgag-cttctccccggaagcgg (where upper case specifies vector-specific sequences, italics indicate restriction sites, and lower case indicates TRP channel specific sequences). Primers are listed in a 5’ to 3’ orientation.
HEK293 cells (ATCC CRL-1573.3) were cultured in DMEM supplemented with 10% fetal bovine serum (FBS), penicillin (100 units/ml), streptomycin (100 μg/ml), and L-glutamine (290 μg/ml). Cells were transiently transfected (Lipofectamine LTX, Thermo Fisher) at a density of 2x10^6 cells per T-25 cell-culture flask with TRP channel cDNA. For Ca^2+ imaging assays, HEK293 cells were seeded onto 8-chambered coverglass slides (Thermo Fisher, 115411PK), at a density of 1x10^4 cells one day prior to imaging. Cells were washed twice with HBSS, and incubated with fluo-4-AM (4μM), pluronic F127 (0.4%) and probenecid (2.5mM) for 25 minutes at room temperature. Cells were then washed twice with HBSS, and left at room temperature (30 minutes) for de-esterification. Dishes were mounted on an Olympus IX81 microscope and fluorescence changes (λex = 488nM, λem = 513±15nm bandpass filter) monitored using a Yogokawa spinning disk confocal (CSU-X-M1N) and an Andor iXon Ultra 888 EMCCD camera.

[2] = test system: mesenteric vessels isolated from a TRPM8 knockout mouse; assay: Wire myography, KPSS-contracted mesenteric vessels from TRPM8 knockout mice; settings: TRPM8 KO tissue; 50μM

Sequence of TRPV1 (Q8NER1 whole entry, the tested form may be a part): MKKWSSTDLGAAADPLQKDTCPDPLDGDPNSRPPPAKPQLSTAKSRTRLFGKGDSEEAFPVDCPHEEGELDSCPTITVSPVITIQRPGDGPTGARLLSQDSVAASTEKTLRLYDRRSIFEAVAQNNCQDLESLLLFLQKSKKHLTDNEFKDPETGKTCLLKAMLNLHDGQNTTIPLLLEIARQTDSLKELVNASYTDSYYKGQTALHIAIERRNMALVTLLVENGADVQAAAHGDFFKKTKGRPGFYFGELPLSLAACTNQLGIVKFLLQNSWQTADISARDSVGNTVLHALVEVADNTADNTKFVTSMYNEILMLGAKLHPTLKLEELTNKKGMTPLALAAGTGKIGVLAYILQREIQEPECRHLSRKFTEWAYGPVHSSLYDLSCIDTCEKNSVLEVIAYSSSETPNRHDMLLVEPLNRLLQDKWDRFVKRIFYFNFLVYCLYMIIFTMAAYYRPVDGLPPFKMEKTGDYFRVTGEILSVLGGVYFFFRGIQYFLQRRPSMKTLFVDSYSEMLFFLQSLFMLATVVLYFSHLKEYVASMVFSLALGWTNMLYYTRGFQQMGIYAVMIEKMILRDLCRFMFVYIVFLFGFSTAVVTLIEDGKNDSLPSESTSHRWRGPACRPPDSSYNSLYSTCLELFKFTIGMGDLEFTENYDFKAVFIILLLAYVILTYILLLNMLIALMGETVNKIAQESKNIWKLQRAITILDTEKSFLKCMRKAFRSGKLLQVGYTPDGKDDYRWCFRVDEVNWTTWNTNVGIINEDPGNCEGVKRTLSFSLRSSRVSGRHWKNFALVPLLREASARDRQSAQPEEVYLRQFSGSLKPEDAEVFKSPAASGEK

| SMILES | Ca2+ signal in TRPV1 expressing cells [1] | extent of relaxation [2] |
| --- | --- | --- |
| O=C(C1CCCCC1)N1CC(=O)N2CCc3ccccc3C2C1 (racemic) [±PZQ, praziquantel] | No responses |  |
| O=C(C1CCCCC1)N1CC(=O)N2CCc3ccccc3[C@H]2C1 [(S)-PZQ] |  | ~ 30 % of peak KPSS-evoked tone |
